Assay results taken from article PMC7762994 (Viruses, 2020).
Read-outs that look alike come from different tables or passages of the source.

Key:
DNAJC13 = target: T1, DNAJC13 (Homo sapiens, UniProt O75165); test: 2D-TPP in U87 cells; type: binding; conditions: 1.5 h, stabilized, read-out: pEC50 of protein stabilization, DNAJC13 (converted)
T1 construct: endogenous in cells; host or cells: U87 cells

OGG1 [1] = target: T2, OGG1 (Homo sapiens, UniProt O15527); test: In vitro OGG1 activity assay; type: biochemical
DNAJC3 = DNAJC3 (Homo sapiens, UniProt Q13217); test: TPP-TR in HAZV-infected SW13 cells; conditions: 20 μM, 4 h
Hazara virus (HAZV) [2] = test: microbe, parasite or virus in culture; type: cell-based; conditions: Hazara virus
Hazara virus (HAZV) [3] = test: microbe, parasite or virus in culture; type: cell-based; conditions: SW13, 24 h
CoV 229E = CoV 229E titer in Huh7 cells, end-point dilution assay; type: cell-based, Coronavirus 229E; conditions: MOI 5, 10 µM, 24 h
CALR = target: T3, CALR (Homo sapiens, UniProt P27797); test: 2D-TPP in U87 cells; type: binding; conditions: 1.5 h, stabilized, read-out: pEC50 of protein stabilization, CALR (converted)
T3 construct: endogenous in cells; host or cells: U87 cells

[4] = test system: host proteins (proteome-wide); test: 2D-TPP in U87 cells (proteome-wide); type: binding, Homo sapiens; conditions: protein A0A087WUL8 (NBPF19¦NBPF26¦NBPF1¦NBPF20¦NBPF8¦NBPF12¦NBPF14)
[5] = target: T4, host proteins (proteome-wide) (Homo sapiens, UniProt A0AVT1); test: 2D-TPP in U87 cells (proteome-wide); type: binding; conditions: protein A0AVT1 (UBA6)
T4 construct: endogenous in cells; host or cells: U87 cells
T4 sequence (A0AVT1 1-1052): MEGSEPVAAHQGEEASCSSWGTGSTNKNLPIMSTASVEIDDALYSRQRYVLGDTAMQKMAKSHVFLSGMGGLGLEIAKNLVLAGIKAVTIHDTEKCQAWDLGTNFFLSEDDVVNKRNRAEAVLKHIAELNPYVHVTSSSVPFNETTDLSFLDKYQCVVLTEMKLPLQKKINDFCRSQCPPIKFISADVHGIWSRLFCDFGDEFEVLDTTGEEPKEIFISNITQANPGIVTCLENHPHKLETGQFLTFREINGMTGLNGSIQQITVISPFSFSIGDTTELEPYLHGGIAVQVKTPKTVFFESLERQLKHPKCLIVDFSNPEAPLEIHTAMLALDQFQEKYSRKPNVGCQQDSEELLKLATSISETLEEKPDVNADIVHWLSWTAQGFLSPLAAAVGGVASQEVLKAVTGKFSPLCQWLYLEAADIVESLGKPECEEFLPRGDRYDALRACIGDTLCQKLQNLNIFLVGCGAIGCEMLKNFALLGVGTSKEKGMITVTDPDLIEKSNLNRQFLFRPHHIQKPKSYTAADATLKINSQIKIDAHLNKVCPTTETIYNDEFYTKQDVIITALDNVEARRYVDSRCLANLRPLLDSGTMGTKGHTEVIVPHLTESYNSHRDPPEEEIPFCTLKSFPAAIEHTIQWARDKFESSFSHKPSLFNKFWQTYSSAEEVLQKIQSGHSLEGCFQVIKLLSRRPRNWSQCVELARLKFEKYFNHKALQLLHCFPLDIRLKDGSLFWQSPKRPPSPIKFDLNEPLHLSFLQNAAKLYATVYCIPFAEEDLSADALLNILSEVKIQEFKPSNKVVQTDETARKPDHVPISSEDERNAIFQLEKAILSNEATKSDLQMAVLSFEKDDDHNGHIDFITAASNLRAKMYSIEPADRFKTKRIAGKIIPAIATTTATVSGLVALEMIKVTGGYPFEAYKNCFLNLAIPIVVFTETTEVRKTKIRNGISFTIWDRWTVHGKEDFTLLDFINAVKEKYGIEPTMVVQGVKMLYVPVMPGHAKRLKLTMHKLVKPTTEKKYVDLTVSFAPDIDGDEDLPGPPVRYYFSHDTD

HARS2 = HARS2 (Homo sapiens, UniProt P49590); test: TPP-TR in HAZV-infected SW13 cells; conditions: read-out: ΔTm of HARS2
HSPA1A = HSPA1A (Homo sapiens, UniProt P0DMV8); test: TPP-TR in HAZV-infected SW13 cells; conditions: 20 μM, 4 h
OGG1 [6] = target: T2, OGG1; test: Cellular thermal shift assay (CETSA), Western blot; type: binding; parameters: endogenous in cells; host or cells: SW13 or U87 cells

T2 sequence (O15527 whole entry): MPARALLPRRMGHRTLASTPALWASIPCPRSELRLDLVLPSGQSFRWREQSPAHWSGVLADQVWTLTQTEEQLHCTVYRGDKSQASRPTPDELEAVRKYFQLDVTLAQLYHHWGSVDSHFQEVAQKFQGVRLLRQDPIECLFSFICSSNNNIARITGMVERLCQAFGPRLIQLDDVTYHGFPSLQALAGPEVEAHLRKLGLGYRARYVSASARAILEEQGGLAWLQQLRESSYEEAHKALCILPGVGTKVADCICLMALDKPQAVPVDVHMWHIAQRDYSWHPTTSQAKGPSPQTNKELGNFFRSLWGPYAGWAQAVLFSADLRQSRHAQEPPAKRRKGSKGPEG
HARS2, sequence (P49590 34-506): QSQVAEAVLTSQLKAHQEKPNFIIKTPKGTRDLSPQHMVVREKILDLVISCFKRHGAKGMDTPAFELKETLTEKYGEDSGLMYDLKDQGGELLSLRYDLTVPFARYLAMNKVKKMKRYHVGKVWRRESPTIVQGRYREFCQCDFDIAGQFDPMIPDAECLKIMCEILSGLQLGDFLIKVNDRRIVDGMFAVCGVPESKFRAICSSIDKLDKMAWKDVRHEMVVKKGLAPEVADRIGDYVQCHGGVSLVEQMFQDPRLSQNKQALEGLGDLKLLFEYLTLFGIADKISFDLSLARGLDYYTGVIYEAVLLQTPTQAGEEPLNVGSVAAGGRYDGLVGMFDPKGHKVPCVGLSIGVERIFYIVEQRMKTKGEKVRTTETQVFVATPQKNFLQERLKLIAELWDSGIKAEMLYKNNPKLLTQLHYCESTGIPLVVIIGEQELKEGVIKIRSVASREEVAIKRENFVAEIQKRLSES
T3 sequence (P27797 18-417): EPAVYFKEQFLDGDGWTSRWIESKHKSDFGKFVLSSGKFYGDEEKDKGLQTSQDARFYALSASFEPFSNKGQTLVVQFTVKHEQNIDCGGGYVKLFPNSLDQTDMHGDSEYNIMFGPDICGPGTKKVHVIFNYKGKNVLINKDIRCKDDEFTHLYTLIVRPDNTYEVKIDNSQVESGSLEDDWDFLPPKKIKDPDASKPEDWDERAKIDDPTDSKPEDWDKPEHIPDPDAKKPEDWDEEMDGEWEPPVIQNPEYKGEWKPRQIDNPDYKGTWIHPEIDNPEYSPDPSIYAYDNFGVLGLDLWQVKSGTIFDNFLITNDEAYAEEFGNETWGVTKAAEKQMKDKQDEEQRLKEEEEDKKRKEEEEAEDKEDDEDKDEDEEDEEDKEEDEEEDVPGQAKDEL
HSPA1A, sequence (P0DMV8 whole entry): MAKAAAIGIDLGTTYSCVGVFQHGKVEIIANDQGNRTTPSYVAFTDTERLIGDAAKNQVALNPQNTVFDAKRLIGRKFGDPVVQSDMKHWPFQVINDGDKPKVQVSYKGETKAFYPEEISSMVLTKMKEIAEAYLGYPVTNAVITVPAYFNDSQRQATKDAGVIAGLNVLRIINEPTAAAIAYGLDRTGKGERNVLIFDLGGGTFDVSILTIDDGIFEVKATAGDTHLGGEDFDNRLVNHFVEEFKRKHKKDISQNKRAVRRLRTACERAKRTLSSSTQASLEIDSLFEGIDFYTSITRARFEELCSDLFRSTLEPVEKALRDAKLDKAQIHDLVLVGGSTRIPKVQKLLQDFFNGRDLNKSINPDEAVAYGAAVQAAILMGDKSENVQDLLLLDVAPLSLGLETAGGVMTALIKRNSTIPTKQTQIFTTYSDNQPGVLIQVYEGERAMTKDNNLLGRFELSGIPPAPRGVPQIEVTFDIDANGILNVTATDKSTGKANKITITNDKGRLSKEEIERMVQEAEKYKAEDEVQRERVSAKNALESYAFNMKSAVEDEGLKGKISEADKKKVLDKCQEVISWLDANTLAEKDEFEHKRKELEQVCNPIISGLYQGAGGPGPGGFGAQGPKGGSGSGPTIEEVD
DNAJC3, sequence (Q13217 32-504): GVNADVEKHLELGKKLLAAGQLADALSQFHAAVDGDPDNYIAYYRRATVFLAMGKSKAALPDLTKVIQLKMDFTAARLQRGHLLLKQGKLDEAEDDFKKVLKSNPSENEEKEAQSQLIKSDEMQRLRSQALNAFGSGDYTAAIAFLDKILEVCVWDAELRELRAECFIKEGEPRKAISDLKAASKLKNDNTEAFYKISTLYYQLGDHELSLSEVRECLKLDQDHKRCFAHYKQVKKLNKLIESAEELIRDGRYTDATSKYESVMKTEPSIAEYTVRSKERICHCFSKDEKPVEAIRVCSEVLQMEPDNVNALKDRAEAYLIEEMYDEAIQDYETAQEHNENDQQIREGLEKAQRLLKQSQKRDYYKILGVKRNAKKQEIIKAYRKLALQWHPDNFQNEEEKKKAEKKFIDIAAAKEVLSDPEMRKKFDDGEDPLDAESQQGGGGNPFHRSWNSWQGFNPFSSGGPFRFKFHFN
T1 sequence (O75165 whole entry): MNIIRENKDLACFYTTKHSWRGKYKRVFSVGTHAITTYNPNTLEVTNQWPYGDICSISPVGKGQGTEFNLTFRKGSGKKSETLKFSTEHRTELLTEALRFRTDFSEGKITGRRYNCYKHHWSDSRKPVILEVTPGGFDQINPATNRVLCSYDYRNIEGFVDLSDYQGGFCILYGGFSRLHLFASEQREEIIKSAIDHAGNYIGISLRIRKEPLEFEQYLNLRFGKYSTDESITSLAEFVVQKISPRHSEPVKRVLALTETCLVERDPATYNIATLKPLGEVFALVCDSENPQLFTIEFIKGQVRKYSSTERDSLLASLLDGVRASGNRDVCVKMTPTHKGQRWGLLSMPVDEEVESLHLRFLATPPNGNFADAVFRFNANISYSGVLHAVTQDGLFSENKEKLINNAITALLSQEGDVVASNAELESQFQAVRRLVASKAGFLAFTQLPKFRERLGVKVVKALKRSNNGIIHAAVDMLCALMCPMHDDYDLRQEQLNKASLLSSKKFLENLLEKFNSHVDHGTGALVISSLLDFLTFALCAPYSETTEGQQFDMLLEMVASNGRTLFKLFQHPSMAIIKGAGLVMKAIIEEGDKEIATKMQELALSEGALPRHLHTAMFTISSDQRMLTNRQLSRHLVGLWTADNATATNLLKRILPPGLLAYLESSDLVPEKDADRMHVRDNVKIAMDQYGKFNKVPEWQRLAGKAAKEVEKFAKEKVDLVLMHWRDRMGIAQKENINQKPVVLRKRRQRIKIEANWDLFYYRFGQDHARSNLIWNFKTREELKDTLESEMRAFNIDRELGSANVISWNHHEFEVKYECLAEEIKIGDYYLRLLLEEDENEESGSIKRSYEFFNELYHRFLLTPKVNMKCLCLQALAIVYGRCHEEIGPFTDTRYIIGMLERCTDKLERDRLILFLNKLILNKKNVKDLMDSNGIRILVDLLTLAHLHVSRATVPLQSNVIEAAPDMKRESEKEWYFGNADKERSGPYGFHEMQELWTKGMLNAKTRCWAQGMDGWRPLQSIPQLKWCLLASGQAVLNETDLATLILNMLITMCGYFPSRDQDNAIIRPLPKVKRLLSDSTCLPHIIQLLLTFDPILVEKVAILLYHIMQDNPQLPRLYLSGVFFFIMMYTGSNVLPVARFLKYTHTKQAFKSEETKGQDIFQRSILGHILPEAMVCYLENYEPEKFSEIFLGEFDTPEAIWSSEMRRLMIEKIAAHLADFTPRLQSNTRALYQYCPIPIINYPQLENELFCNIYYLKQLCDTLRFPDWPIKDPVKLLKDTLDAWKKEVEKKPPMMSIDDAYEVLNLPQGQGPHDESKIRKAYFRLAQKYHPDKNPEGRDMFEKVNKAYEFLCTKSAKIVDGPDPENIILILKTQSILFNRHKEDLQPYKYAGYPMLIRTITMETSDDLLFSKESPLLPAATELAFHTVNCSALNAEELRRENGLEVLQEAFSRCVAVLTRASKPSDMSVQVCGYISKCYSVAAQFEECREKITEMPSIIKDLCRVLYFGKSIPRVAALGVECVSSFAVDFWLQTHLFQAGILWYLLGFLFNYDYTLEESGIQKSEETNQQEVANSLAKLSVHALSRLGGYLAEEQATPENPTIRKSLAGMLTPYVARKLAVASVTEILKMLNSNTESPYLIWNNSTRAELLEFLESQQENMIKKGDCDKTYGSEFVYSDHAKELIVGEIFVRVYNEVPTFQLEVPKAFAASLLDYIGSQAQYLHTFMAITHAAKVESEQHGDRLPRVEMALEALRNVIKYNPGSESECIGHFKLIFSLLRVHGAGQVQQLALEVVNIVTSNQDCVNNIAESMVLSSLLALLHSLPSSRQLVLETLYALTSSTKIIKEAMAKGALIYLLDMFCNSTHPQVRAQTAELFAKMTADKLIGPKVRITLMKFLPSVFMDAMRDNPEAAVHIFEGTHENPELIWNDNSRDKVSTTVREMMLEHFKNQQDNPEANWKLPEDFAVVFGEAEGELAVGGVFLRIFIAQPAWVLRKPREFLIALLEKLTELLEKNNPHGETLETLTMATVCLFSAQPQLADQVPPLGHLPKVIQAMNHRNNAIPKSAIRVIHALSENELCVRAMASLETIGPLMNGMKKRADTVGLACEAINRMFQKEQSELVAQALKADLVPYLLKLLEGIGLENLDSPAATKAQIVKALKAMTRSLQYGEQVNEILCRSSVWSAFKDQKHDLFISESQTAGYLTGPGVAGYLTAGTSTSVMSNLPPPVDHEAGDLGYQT

Structure (SMILES): CCOC(=O)c1cnn(-c2cccc3c2[nH]c(=O)n3C2CCN(C(=O)Nc3ccc(I)cc3)CC2)c1 [TH6744, ethyl 1-(1-(1-((4-iodophenyl)carbamoyl)piperidin-4-yl)-2-oxo-2,3-dihydro-1H-benzo[d]imidazol-4-yl)-1H-pyrazole-4-carboxylate]
- EC50 (DNAJC13): 1000 nM
- IC50 (OGG1 [1]): 680 nM
- OGG1 activity (in words) (OGG1 [1]; Figure 3A): Nanomolar OGG1activity
- thermal stability change of DNAJC3 (DNAJC3): stabilized
- IC50 (Hazara virus (HAZV) [2]; SW13, 24 h, read-out: Antiviral on titer (µM) IC50 [µM]): 2.9 µM
- EC50 (Hazara virus (HAZV) [2]; SW13, read-out: EC50 Viral titer): 2900 nM
- inhibition at 10 µM (Hazara virus (HAZV) [2]; Vero, 24 h, read-out: Viral inhibition on titer (%)): 90%
- IC50 (Hazara virus (HAZV) [3]; read-out: Antiviral on primary infection IC50 [µM]): 10.9 µM
- EC50 (Hazara virus (HAZV) [3]; read-out: EC50 Infected cells (primary infection)): 10900 nM
- inhibition at 10 µM (Hazara virus (HAZV) [3]; read-out: Viral inhibition on primary infection (%)): 85%
- reduction of CoV 229E titer (CoV 229E): 95%
- EC50 (CALR): 3980 nM
- pec50 ([4]; temperature 45, Set1): 5.615
- norm_rel_fc_protein_1_unmodified ([4]; temperature 45, dose 1, Set1): 0.9697
- norm_rel_fc_protein_3_unmodified ([4]; temperature 45, dose 3, Set1): 0.761
- norm_rel_fc_protein_10_unmodified ([4]; temperature 45, dose 10, Set1): 0.63
- norm_rel_fc_protein_30_unmodified ([4]; temperature 45, dose 30, Set1): 0.6272
- EC50 ([5]; temperature 51, Set2): 890 nM
- norm_rel_fc_protein_1_unmodified ([5]; temperature 51, dose 1, Set2): 1.349
- norm_rel_fc_protein_3_unmodified ([5]; temperature 51, dose 3, Set2): 1.572
- norm_rel_fc_protein_10_unmodified ([5]; temperature 51, dose 10, Set2): 1.5768
- norm_rel_fc_protein_30_unmodified ([5]; temperature 51, dose 30, Set2): 1.557
- ΔTm at 20 µM (HARS2): -9.2 °C
- thermal stability change of HSPA1A (HSPA1A): destabilized
- binding to OGG1 (CETSA, Western blotting) (OGG1 [6]; SW13 cells, 20 μM): binding to its known target OGG1
- binding to OGG1 (isothermal dose-response CETSA at 47 °C, Western blotting) (OGG1 [6]; U87 cells): binding to its known target OGG1 in U87 cells
